Assay [1] deals with hROMK (hKir1.1) (Homo sapiens (Human), UniProt P48048). The experiment in a line: Thallium Flux Assay (ROMK channel functional thallium flux, FLIPR-Tetra). The assay is classed as cell-based. The conditions noted are these: HEK293 cells stably expressing hROMK (hKir1.1); read-out: Thallium Flux IC50. On the procedure:
Cell Culture Conditions—HEK293 cells stably expressing hROMK (hKir1.1) were grown at 37° C. in a 10% CO2 humidified incubator in complete growth media: Dulbecco's Modified Eagle Medium supplemented with non-essential amino acids, Penicillin/Streptomycin/Glutamine, G418 and FBS. At >80% confluency, aspirate the media from the flask and rinse with 10 mL Calcium/Magnesium-free PBS. […] To dislodge the cell, gently bang the side of the flask with your hand. Triturate the cells completely and then transfer the cells to 25 mL complete media. Centrifuge at 1,500 rpm for 6 min followed by resuspension in complete growth media and determine cell concentration. […] Under ideal growth conditions and appropriate tissue culture practices, this cell line is stable for 40-45 passages.
FluxOR Kit Components (Invitrogen F10017) • FluxOR™ Reagent (Component A) • FluxOR™ Assay Buffer (Component B)—10× Concentrate • PowerLoad™ Concentrate (Component C)—100× Concentrate • Probenecid (Component D)—Lyophilized sample is kept at −20° C. Water soluble, 100× after solubilization in 1 mL water. […] Store at 4° C. • Thallium sulfate (Tl2SO4) Concentrate (Component G)—50 mM in water. Store at 4° C. • DMSO (dimethyl sulfoxide, Component H)—1 mL (100%)
Can be stored at room temperature • Stimulant Buffer (prepared at 5× final concentration in 1× FluxOR™ Chloride-Free Buffer): 7.5 mM Thallium sulfate and 0.75 mM Potassium sulfate (to give a final assay concentration of 3 mM Thallium/0.3 mM Potassium). Store at 4° C. when not in use. If kept sterile, this solution is good for months.
Assay Protocol—The ROMK channel functional thallium flux assay is performed in 384 wells, using the FLIPR-Tetra instrument. HEK-hKir1.1 cells are seeded in Poly-D-Lysine microplates and kept in a 37° C.-10% CO2 incubator overnight. On the day of the experiment, the growth media is replaced with the FluxOR™ reagent loading buffer and incubated, protected from light, at ambient temperature (23-25° C.) for 90 min. The loading buffer is replaced with assay buffer±test compound followed by 30 min incubation at ambient temperature, where the Thallium/Potassium stimulant is added to the microplate.
Step Protocol • 1. Seed HEK-hKir1.1 cells (50 μl at 20,000 cells/well) in 384-well PDL coated Microplates • 2. Allow cells to adhere overnight in humidified 37° C./10% CO2 incubator • 3. Completely remove cell growth media from microplate and replace with 25 μl loading buffer • 4. Incubate Microplate at room temperature, protected form light, for 90 min • 5. Remove loading buffer and replace with 25 μl 1× Assay Buffer±test compound. • 6. Incubate microplate at room temperature, protected from light, for 30 min • 7. […] Excitation=400 nm, Emission=460 & 580 nm. Collect data for ˜10 min.
Data Calculation—The fluorescence intensity of wells containing 3 μM of a standard control ROMK inhibitor of the present invention is used to define the ROMK-sensitive component of thallium flux. Fluorescence in the presence of test compounds is normalized to control values to provide % fluorescence change.

Assay [2] addresses Kir1.1 (ROMK1) (Homo sapiens (Human), UniProt P48048). Briefly: Electrophysiology Assay (whole cell voltage clamp, IonWorks Quattro). The assay is classed as cell-based. The conditions noted are these: block during voltage step to 0 mV. On the procedure:
Chinese hamster ovary cells stably expressing Kir1.1 channels were maintained in T-75 flasks in cell culture media in a humidified 10% CO2 incubator at 37° C. Prior to an experiment, Kir1.1 expression was induced by overnight incubation with 1 mM sodium butyrate. […] After centrifugation, the cell pellet was resuspended in approximately 4.0 mL of bath solution and placed in the IonWorks instrument. The intracellular solution consisted of (in mM): 80 K gluconate, 40 KCl, 20 KF, 3.2 MgCl2, 3 EGTA, 5 Hepes, pH 7.4. Electrical access to the cytoplasm was achieved by perforation in 0.13 mg/mL amphotericin B for 4 min. […] Voltage protocols and current recordings were performed using the IonWorks HT software/hardware system. Currents were sampled at 1 kHz. No correction for liquid junction potentials was used. The test pulse, consisting of a 100 ms step to 0 mV from a holding potential of −70 mV, followed by a 100 ms voltage ramp from −70 mV to +70 mV, was applied before and after a 6 min compound incubation period. Test compounds were prepared by diluting DMSO stock solutions into the bath solution at 3× the final concentration and placed in the instrument in 96-well polypropylene plates. Current amplitudes were measured using the IonWorks software.

The mark [3] stands for this setting: Chinese hamster ovary cells stably expressing Kir1.1, read-out: Electrophysiology IC50.
[4] abbreviates: Electrophysiology IC50, Chinese hamster ovary cells stably expressing Kir1.1.

Read-outs that look alike come from different tables or passages of the source.

Results on 14 compounds are retold here after US9573961B2, “Inhibitors of the renal outer medullary potassium channel” (Merck Sharp & Dohme Corp., priority 2012, dated 2017).

Kir1.1 (ROMK1), sequence (P48048 whole entry): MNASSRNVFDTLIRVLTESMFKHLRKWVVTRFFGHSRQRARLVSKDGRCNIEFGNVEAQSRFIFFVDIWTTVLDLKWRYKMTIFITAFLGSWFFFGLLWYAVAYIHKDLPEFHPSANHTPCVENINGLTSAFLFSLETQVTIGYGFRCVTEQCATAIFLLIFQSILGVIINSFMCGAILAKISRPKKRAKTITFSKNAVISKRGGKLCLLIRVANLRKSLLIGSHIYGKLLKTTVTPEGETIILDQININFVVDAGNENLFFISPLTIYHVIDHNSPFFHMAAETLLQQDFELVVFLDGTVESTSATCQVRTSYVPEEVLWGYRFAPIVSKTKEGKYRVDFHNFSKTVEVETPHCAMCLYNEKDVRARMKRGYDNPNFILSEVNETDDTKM
hROMK (hKir1.1), sequence (P48048 whole entry): as above

Turning to `O=C(C1CCc2cc(-n3cnnn3)ccc21)N1CCN2C[C@@H](c3cccc(-n4cnnn4)c3)OC[C@@H]2C1` (single isomer, unassigned) [Example 80], the IC50 in assay [1] stood at 130 nM; in assay [2] (setting [3]), 280 nM.
The matching figures for `Cc1c([C@H]2CN3CCN(C(=O)C4CCc5cc(-n6cnnn6)ccc54)C[C@H]3CO2)ccc2c1COC2=O` (single isomer, unassigned) [Example 81]: 230 nM and 260 nM.
The like results for `Cc1c([C@@H]2CN3CCN(C(=O)C4CCc5cc(-n6cnnn6)ccc54)C[C@H]3CO2)csc1C#N` (single isomer, unassigned) [Example 82] were, in that order, 330 nM and 110 nM.
`Cc1c([C@@H]2CN3CCN(C(=O)C4CCc5cc(-n6cnnn6)ccc54)C[C@H]3CO2)csc1C#N` (single isomer, unassigned) [Example 83]: the IC50 in assay [1] worked out at 140 nM; in assay [2] (setting [3]), 90 nM.
The matching figures for `Cc1c([C@H]2CN3CCN(C(=O)C4CCCc5cc(-n6cnnn6)ccc54)C[C@H]3CO2)ccc2c1COC2=O` (single isomer, unassigned) [Example 88]: 380 nM and 460 nM.
The matching figures for `Cc1c([C@@H]2CN3CCN(C(=O)C4CCCc5cc(-n6cnnn6)ccc54)C[C@H]3CO2)ccc2c1COC2=O` (single isomer, unassigned) [Example 89]: 490 nM and 460 nM.
The matching figures for `O=C1OCCc2cc([C@@H]3CN4CCN(C(=O)C5CCCc6cc(-n7cnnn7)ccc65)C[C@H]4CO3)ccc21` (single isomer, unassigned) [Example 90]: 430 nM and 260 nM.
As to `Cc1c([C@@H]2CN3CCN(C(=O)C4CCCc5cc(-n6cnnn6)ccc54)C[C@H]3CO2)csc1C#N` (single isomer, unassigned) [Example 96], the IC50 in assay [1] worked out at 460 nM; in assay [2] (setting [3]), 190 nM.
The like results for `Cc1c([C@H]2CN3CCN(C(=O)C4CCCc5cc(-n6cnnn6)ccc54)C[C@H]3CO2)csc1C#N` (single isomer, unassigned) [Example 97] were, in that order, 620 nM and 280 nM.
Consider `Cc1c([C@H]2CN3CCN(C(=O)C4CCc5cc(-n6cnnn6)ccc54)C[C@H]3CO2)ccc(F)c1C#N` (single isomer, unassigned) [Example 98], for which the IC50 in assay [1] was 170 nM; in assay [2] (setting [3]), 140 nM.
In the case of `Cc1c([C@@H]2CN3CCN(C(=O)Cc4ccc(-n5cnnn5)cc4)C[C@H]3CO2)ccc2c1COC2=O` [Example 1A, 4-methyl-5-[(3R,9aS)-8-{[4-(1H-tetrazol-1-yl)phenyl]acetyl}octahydropyrazino[2,1-c][1,4]oxazin-3-yl]-2-benzofuran-1(3H)-one], the IC50 in assay [1] came out at 30 nM; in assay [2] (setting [4]), 100 nM.
The matching figures for `COc1cc(CC(=O)N2CCN3C[C@@H](c4ccc5c(c4)COC5=O)OC[C@@H]3C2)c(F)cc1C#N` [Example 10, 5-fluoro-2-methoxy-4-{2-oxo-2-[(3R,9aS)-3-(1-oxo-1,3-dihydro-2-benzofuran-5-yl)hexahydropyrazino[2,1-c][1,4]oxazin-8(1H)-yl]ethyl}benzonitrile]: 130 nM and 90 nM.
The matching figures for `Cc1c([C@@H]2CN3CCN(C(=O)Cc4ccc(-n5cnnn5)cc4)C[C@@H]3CO2)ccc2c1COC2=O` [Example 13, 4-methyl-5-[(3R,9aR)-8-{[4-(1H-tetrazol-1-yl)phenyl]acetyl}octahydropyrazino[2,1-c][1,4]oxazin-3-yl]-2-benzofuran-1(3H)-one]: 120 nM and 150 nM.
The like results for `Cc1c([C@H]2CN3CCN(C(=O)Cc4ccc(-n5cnnn5)cc4)C[C@@H]3CO2)ccc2c1COC2=O` [Example 14, 4-methyl-5-[(3S,9aR)-8-{[4-(1H-tetrazol-1-yl)phenyl]acetyl}octahydropyrazino[2,1-c][1,4]oxazin-3-yl]-2-benzofuran-1(3H)-one] were, in that order, 110 nM and 140 nM.
